In patent US5444049A, “Peptide compounds derived from boronic acid” (Adir et Compagnie, priority 1993, dated 1995):
Read-outs that look alike come from different tables or passages of the source. Values belong to the compound of their own block, whether it stands above or below them.

Assays:
[1] = molecular target: T1, purified human urokinase (Homo sapiens, UniProt P00749); test: Inhibition of urokinase; format: biochemical; settings: peptidyl para-nitroanilide substrate
T1 construct: purchased Sigma
Procedure: (§1) To evaluate in vitro the selectivity of these products with respect to different serine proteases of fibrinolysis and of coagulation, the same protocol was applied to purified human plasmin (2 nM, Stago), to purified human activated protein C (2 nM, Stago), to purified human activated factor X (2 nM, Stago), to tissue plasminogen activator (2 nM, Calbiochem), to purified human urokinase (2 nM, Sigma) and to purified human plasma kallikrein (2 nM, Calbiochem), using different peptidyl para-nitroanilides as substrate: <Glu-Phe-Lys-pNA (0.50 mM, S 2403, Kabi) for plasmin, N-Cbo-Arg-Gly-Arg-pNA (0.38 mM, S 2765, Kabi) for factor Xa, <Glu-Pro-Arg-pNa (0.52 mM, S 2366, Kabi) for activated protein C, H-D-Pro-Phe-Arg-pNa (0.45 mM, S 2302, Kabi) for kallikrein, H-D-Ile-Pro-Arg-pNA (0.48 mM, S 2288, Kabi), <Glu-Gly-Arg-pNA (0.56 mM, S 2444, Kabi).
(§2) Inhibitors, enzymes and substrates are diluted in the same buffer ([…] buffer, pH 7.4, containing 0.12M sodium chloride and 0.05% of bovine serum albumin), and then distributed in a polystyrene microplate in a volume of […].
(§3) The fibrin formed by thrombin or by the para-nitroaniline liberated by the action of the serine protease is measured spectrophotometrically at 405 nm after 15 to 30 minutes of reaction at 20° C.

[2] = tested on: dogs; test: Anticoagulant activity p.o. in dogs, thrombin time; format: in vivo, dog; settings: 2.5 mg/kg orally
Procedure: (§4) The products were administered orally to dogs.2 hours and 4 hours after the treatment, and blood was withdrawn via the intravenous route. The plasma is prepared, platelets counted and the thrombin time test is carried out.

[3] = tested on: thrombin time of rat platelet-poor plasma; test: Anticoagulant activity: thrombin time in rat plasma; format: biochemical; settings: for Rat CTT2 (concentration which multiplies the thrombin time by 2): rat plasma, 2 minutes at 37° C.
Procedure: (§5) In the presence of a standard quantity of thrombin, a normal plasma coagulates in a defined and constant time, termed the thrombin time (TT). Any prolongation of this time reflects an abnormality of fibrin formation (coagulation).
(§6) Sprague-Dawley rats are anesthetized with pentobarbital sodium (60 mg/kg i.p.), the carotid artery is catheterized and blood samples are taken into trisodium citrate solution (0.109M). A platelet-poor plasma is obtained by centrifugation of the blood samples (3000 g, 15 minutes). Samples of venous blood are also taken from humans at the bend of the arm. Anticoagulation of the samples and preparation of platelet-poor plasma are identical to those carried out with rat blood.
(§7) The thrombin time is obtained with Prest thrombin reagent and determined automatically using a coagulometer.
(§8) The antagonist or the solvent (10 μl) is added to the plasma (90 μl) and then incubated for 2 minutes at 37° C. 100 µl of thrombin are added as the chronometer is started.
(§9) Under these conditions, the TT values obtained in the control plasma are of the order of 30 seconds in rats and 20 seconds in humans. The activity of an antagonist is evaluated by its capacity to prolong this thrombin time relative to the control.
(§10) Under these conditions, the compounds of the invention permit a prolongation of the thrombin time of 50-fold and more. The effect of the inhibitors is measured, and the concentration which multiplies the thrombin time by 2 (CTT2) is determined.

[4] = molecular target: T2, purified human activated factor X (Homo sapiens, UniProt P00742); test: Inhibition of activated factor X; format: biochemical; settings: substrate S 2765
T2 construct: purchased Stago
T2 sequence (P00742 235-488 limits assumed): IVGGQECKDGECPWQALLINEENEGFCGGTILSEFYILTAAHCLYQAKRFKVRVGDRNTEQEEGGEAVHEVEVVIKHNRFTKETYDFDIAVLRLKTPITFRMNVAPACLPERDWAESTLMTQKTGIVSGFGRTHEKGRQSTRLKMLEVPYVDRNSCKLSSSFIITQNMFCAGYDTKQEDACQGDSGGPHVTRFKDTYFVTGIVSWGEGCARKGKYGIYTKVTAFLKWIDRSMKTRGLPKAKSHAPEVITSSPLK
T2 sequence (P00742 41-179 limits assumed): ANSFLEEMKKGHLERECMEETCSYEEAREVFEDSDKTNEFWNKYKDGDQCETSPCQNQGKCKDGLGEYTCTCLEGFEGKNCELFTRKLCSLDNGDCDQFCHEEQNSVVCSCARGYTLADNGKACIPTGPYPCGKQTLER
Procedure: as §1, §2, §3

[5] = tested on: dogs; test: Thrombopenia p.o. in dogs, platelet count; format: in vivo, dog; settings: 2.5 mg/kg orally
Procedure: as §4

[6] = molecular target: T3, purified human activated protein C (Homo sapiens, UniProt P04070); test: Inhibition of activated protein C; format: biochemical; settings: substrate S 2366
T3 construct: purchased Stago
T3 sequence (P04070 212-461 limits assumed): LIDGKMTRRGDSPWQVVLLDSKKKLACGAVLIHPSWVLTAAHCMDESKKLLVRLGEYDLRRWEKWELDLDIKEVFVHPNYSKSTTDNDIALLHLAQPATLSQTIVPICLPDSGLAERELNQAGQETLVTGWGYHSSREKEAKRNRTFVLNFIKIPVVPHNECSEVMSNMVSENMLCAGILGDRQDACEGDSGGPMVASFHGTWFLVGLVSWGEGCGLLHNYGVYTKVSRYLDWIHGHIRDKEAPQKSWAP
T3 sequence (P04070 43-197 limits assumed): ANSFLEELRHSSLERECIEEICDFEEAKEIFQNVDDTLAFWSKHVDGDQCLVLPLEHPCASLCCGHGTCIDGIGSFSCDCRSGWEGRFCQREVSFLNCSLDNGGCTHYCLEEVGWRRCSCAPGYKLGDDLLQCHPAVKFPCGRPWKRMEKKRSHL
Procedure: as §1, §2, §3

[7] = tested on: OFA rats; test: Anticoagulant activity ex vivo, intravenous administration, activated cephalin time; format: in vivo, rat; settings: 0.5 mg/kg i.v., 15.5 min
[8] = tested on: OFA rats; test: as above; format: in vivo, rat; settings: 0.5 mg/kg i.v.
Procedure: OFA rats, fasted or otherwise, are anesthetized with pentobarbital (60 mg/kg i.p.). The carotid artery and the jugular vein are exposed and catheterized. The catheters are flushed with citrated (1/40) physiological solution. After installation of the catheters, a sample of 1.5 cm^3 of arterial blood is withdrawn into 0.109M citrate (1/9).
30 minutes later, the test product is administered i.v. in a volume of 1 ml.
Arterial blood samples (1.5 ml) are then withdrawn at 1 minute 30 sec and 5, 15, 30 and 60 minutes.
As each sample is withdrawn, 1.5 ml of citrated physiological solution are reinjected into the animal via the carotid.
The blood tubes are centrifuged for 15 minutes at 3000 g (preparation of plasma). 100 μl of plasma are incubated with 100 gl of activated cephalin. The time of onset of the coagulation phenomenon is measured after adding 100 μl of calcium.
The compounds of the invention, tested at a dose of 0.5 mg/kg, increase the activated cephalin time (ACT) in a dose-dependent manner. […] The increase in ACT noted with the compounds of the invention is still significant 60 minutes after their administration. The results are reproduced in the following table, and show the factors by which the coagulation time is increased.

[9] = tested on: thrombin time of human platelet-poor plasma; test: Anticoagulant activity: thrombin time in human plasma; format: biochemical; settings: human plasma, 2 minutes at 37° C.
Procedure: as §5, §6, §7, §8, §9, §10

[10] = molecular target: T4, purified human plasma kallikrein (Homo sapiens, UniProt P03952); test: Inhibition of plasma kallikrein; format: biochemical; settings: substrate S 2302; read-out: IC50 Kalli
T4 construct: to purified human plasma kallikrein (2 nM, Calbiochem); purchased Calbiochem
T4 sequence (P03952 391-638 limits assumed): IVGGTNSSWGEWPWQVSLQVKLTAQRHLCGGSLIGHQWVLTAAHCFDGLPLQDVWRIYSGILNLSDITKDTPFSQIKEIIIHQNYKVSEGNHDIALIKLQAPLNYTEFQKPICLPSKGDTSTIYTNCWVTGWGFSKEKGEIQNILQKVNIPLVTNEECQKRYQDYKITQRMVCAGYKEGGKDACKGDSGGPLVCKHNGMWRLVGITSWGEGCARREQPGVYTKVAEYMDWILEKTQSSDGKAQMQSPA
T4 sequence (P03952 20-390 limits assumed): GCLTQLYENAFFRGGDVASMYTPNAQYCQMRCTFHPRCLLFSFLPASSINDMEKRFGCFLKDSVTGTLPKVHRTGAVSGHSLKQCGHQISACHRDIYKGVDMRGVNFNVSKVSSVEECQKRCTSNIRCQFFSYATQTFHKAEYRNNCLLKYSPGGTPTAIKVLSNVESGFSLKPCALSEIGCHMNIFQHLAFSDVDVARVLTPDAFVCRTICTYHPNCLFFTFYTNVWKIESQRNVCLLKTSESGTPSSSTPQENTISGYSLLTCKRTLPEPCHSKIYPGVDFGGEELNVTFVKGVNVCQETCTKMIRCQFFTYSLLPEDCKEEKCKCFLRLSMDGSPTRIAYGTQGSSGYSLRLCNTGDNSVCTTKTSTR
Procedure: as §1, §2, §3

[11] = molecular target: T5, tissue plasminogen activator (Homo sapiens, UniProt P00750); test: Inhibition of tissue plasminogen activator; format: biochemical; settings: peptidyl para-nitroanilide substrate
T5 construct: purchased Calbiochem
T5 sequence (P00750 36-562): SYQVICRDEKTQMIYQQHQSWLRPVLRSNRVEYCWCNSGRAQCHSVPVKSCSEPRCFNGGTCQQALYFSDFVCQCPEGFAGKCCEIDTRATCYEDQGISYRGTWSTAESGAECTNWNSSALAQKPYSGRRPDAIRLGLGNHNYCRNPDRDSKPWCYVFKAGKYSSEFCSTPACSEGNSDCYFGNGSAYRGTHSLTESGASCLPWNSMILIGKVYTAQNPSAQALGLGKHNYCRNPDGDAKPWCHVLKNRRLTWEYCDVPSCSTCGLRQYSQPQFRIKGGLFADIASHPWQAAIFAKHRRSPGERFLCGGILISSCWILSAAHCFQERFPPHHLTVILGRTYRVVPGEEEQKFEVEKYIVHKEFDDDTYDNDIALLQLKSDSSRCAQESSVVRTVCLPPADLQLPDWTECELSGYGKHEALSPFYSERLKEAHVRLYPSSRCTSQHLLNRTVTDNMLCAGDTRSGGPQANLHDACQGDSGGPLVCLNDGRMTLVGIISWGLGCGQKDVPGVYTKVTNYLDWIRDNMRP
Procedure: as §1, §2, §3

[12] = molecular target: T6, purified human plasmin (Homo sapiens, UniProt P00747); test: Inhibition of plasmin; format: biochemical; settings: substrate S 2403
T6 construct: purified human plasmin (2 nM, Stago); purchased Stago
T6 sequence (P00747 581-810 limits assumed): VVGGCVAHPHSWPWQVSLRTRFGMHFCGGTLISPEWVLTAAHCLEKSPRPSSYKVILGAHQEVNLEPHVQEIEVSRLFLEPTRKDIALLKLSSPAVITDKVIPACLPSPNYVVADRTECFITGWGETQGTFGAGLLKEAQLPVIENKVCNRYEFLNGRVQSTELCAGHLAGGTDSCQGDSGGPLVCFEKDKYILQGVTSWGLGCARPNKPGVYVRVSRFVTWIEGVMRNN
T6 sequence (P00747 97-580 limits assumed): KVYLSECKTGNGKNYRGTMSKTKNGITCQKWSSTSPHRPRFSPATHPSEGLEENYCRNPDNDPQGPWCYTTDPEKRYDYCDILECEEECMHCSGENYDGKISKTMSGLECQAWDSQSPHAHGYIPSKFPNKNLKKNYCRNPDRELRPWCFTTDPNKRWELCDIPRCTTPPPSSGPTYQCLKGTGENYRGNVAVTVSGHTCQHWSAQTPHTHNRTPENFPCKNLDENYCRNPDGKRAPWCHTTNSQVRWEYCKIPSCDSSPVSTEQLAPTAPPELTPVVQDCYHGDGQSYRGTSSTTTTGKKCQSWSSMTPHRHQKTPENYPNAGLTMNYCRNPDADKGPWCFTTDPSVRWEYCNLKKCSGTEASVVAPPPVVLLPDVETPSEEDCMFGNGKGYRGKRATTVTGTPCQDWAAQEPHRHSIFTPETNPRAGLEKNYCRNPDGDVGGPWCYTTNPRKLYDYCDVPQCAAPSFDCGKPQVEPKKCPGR
Procedure: as §1, §2, §3

[13] = tested on: OFA rats; test: Anticoagulant activity ex vivo, oral administration (conscious rats), thrombin time; format: in vivo, rat; settings: 10 mg/kg orally
Procedure: Fasted OFA rats are anesthetized with ether. The cordal artery is exposed and catheterized. The catheter is flushed with citrated (1/40) physiological solution. After installation of the catheter, the animal is placed in a restraining cage and 1.5 cm^3 of arterial blood are withdrawn into 0.109M citrate (1/9).
1 hour after the animal has awoken, the test products are administered orally at a single dose of 10 mg/kg.
Arterial blood samples (1.5 ml) are then withdrawn at 30 minutes, 60 minutes and 2 hours.
As each sample is withdrawn, 1.5 ml of physio-logical solution are reinjected into the animals.
The blood tubes are centrifuged for 15 minutes at 3000 g for preparation of the plasma. The time of onset of the coagulation phenomenon is measured after adding Prest thrombin.
The results are reproduced in the following table, and show the factors by which the thrombin time is increased.

[14] = molecular target: T7, human thrombin (Homo sapiens, UniProt P00734); test: Inhibition of human thrombin (fibrinogen or S2238 substrate); format: biochemical; settings: for IC50: 20° C.
T7 construct: human thrombin (Sigma, specific activity 3230 NIHU/mg); purchased Sigma
Procedure: To evaluate in vitro the inhibitory activity of the boro-arginine products with respect to human thrombin (Sigma, specific activity 3230 NIHU/mg), purified human fibrinogen ([…], Stago) (Fg) or the chromogenic substrate H-D-Phe-Pip-Arg-pNa ([…], S2238, Kabi) was added to a given quantity of thrombin (0.7 or 2 nM) incubated beforehand with or without the inhibitor under test (20° C., 10 minutes).
as §2, §3

SMILES: CC(=O)N[C@H](Cc1ccccc1)C(=O)N1CCC[C@H]1C(=O)N[C@@H](CCCN=C(N)N)B(O)O [DUP 714, Ac-(D)Phe-Pro-Arg-boronic acid, reference compound]
IC50 [1]: 0.024 µM
Increase factor TT ([2]; 2 hr): 7
Increase factor TT ([2]; 4 hr): 2
Rat CTT2 (concentration which multiplies the thrombin time by 2) [3]: 0.32 µM
IC50 [4]: 0.041 µM
thrombopenia [5]: marked thrombopenia
Change in platelet count (% of control) ([5]; 2 hr): -32%
Change in platelet count (% of control) ([5]; 4 hr): -16%
IC50 [6]: 0.017 µM
factor by which the coagulation time (ACT) is increased [7]: 7.6
factor by which the coagulation time (ACT) is increased ([8]; 5 min): 3.4
factor by which the coagulation time (ACT) is increased ([8]; 15 min): 2.0
factor by which the coagulation time (ACT) is increased ([8]; 30 min): 1.7
factor by which the coagulation time (ACT) is increased ([8]; 60 min): 1.4
Man CTT2 (concentration which multiplies the thrombin time by 2) [9]: 0.18 µM
IC50 [10]: 0.008 µM
IC50 [11]: 0.008 µM
IC50 [12]: 0.028 µM
factor by which the thrombin time is increased ([13]; 0.5 hours): 4.0
factor by which the thrombin time is increased ([13]; 1 hour): 3.7
factor by which the thrombin time is increased ([13]; 2 hours): 3.9

IC50 [1]: 1.64 µM
IC50 [4]: 0.356 µM
IC50 [6]: 0.211 µM
IC50 ([14]; chromogenic substrate S2238, read-out: IC50 Thrombin S2238): 0.002 µM
IC50 ([14]; substrate purified human fibrinogen, read-out: IC50 Thrombin Fg): 0.00045 µM
selectivity with respect to the serine proteases of coagulation and of fibrinolysis compared with DUP 714 ([14]; thrombin versus other serine proteases): greater selectivity
IC50 [10]: 0.075 µM
IC50 [11]: 0.014 µM
IC50 [12]: 0.818 µM
SMILES: CC(=O)N[C@H](Cc1ccccc1)C(=O)N(CC(=O)N[C@@H](CCCNC(=N)N)B(O)O)C1CCC1.CC(=O)O [Ex. 25, 1-(R)-{[Ac-(R)Phe-(N-cyclobutyl)Gly]amino}-4-guanidinobutylboronic acid acetate]
potency on human thrombin compared with DUP 714 ([14]; with respect to human fibrinogen): more potent inhibitors of human thrombin than the reference compound

SMILES: CC(=O)NC(Cc1ccccc1)C(=O)N1C2CCC(CC2)C1C(=O)NC(CCCNC(=N)N)B(O)O.CC(=O)O (mixture of isomers) [Ex. 23, 1-(R)-[(Ac-(RS)Phe-Abo)amino]-4-guanidinobutylboronic acid acetate]
Rat CTT2 (concentration which multiplies the thrombin time by 2) [3]: 0.17 µM
concentration for doubling the thrombin time relative to DUP 714 ([3]; rats): one half
Man CTT2 (concentration which multiplies the thrombin time by 2) [9]: 0.11 µM
